# Reference: patent publication US20150056209A1, “PEPTIDE MIMOTOPES TO OXIDATION SPECIFIC EPITOPES” (The Regents of the University of California, priority 2012, published 2015)
# Where no end group is shown, it is not given here.
# How the values were obtained:
# LRO4 [1] = assay: Competitive phage ELISA, phage binding to LRO4 in presence of MDA-LDL; set-up: species or system murine; settings: in the presence of 50 μg/mL MDA-LDL
# Experimental: For competitive phage ELISA, plates were coated with 5 μg/mL LRO4 and binding of 25 μL of phage solution at 2×10^10 pfu/mL was tested in the presence of 25 μL of MDA-LDL at 100 μg/mL. Bound phages were detected as described above and data expressed as values obtained in presence of competitor (B) divided by the values obtained in the absence of competitor (B0). A reciprocal competition assay was performed in which 50 μL of 5 μg/mL MDA-LDL was coated on microtiter wells, and binding of LRO4 that was preincubated for 30 min at RT with a solution containing either no or 1×10^10 pfu/mL phages with or without peptide was tested by chemiluminescent ELISA.
# Table 2A-B. Binding characteristics of MDA-phagotopes. Sequences and binding characteristics of selected phagotopes from (A) the Ph.D.-12 and (B) the Ph.D.7C7 libraries, respectively. Individual phages were selected and amplified after the third round of biopanning, and binding to an isotype control IgM, LRO4, and LRO4 in the presence of 50 μg/mL MDA-LDL was measured by phage ELISA, as described in Methods. Numbers indicate OD values or for inhibition studies the fraction of OD values obtained in the absence and presence of soluble MDA-LDL (B/B0). Sequences indicate amino acid residues in peptide sequences that were deducted from the DNA sequence of each phagotope. “X” indicates an unidentified amino acid at this position. * for clones with identical sequence representative data of one clone are provided. (SEQ ID NOs:6-37)
# LRO4 [2] = assay: Phage ELISA, binding of phage clones to coated LRO4; set-up: species or system murine; settings: 10^10 pfu/ml, OD 405-490 nm
# Experimental: (§1) Phage ELISA was performed as described by NEB with minor modifications. Ninety six-well ELISA plates (Nunc Maxisorp) were coated with 5 μg/mL LRO4 mAb or control IgM mAb in NaHCO3 buffer (pH 8.6) at 50 μL/well ON at 4° C. Wells were washed with TBS containing 0.5% Tween 20 and then blocked with blocking buffer (TBS-T containing 1% BSA) at 200 μL/well for 1 hour at RT. After further washing, 10^10 pfu/ml of phage amplificates diluted in blocking buffer were added to the wells at 50 μL/well for 2 hours at RT. Wells were washed again, and an HRP-labeled anti-M13 mAb conjugate (no. 27-9421-01; GE Healthcare, Amersham, UK) diluted 1:1,000 in blocking buffer was added for 1 hour at RT followed by the addition of an 2,2′-azino-bis(3-ethylbenzothiazoline-6-sulphonic acid) (ABTS) (Sigma-Aldrich) substrate solution for 1 hour at RT. The binding reactivity of selected phage clones was measured at OD 405-490 nm using a BioTek Synergy 2 plate reader.
# isotype control IgM = assay: Phage ELISA, binding of phage clones to isotype control IgM; settings: 10^10 pfu/ml, OD 405-490 nm
# Experimental: Briefly, LRO4 or a control isotype anti-KLH IgM Ab (C48-6; BD Bioscience-Pharmingen, USA) were coated in buffer containing 0.1 M NaHCO3 (pH 8.5) on ELISA plates (Nunc Maxisorp, Roskilde, Denmark) overnight (ON) at 4° C. at a concentration of 100 μg/ml for the 1st, 50 μg/ml for the 2nd, and 10 μg/ml for the 3rd biopanning round. The next day, wells were washed with TBS containing 0.05% v/v Tween 20 (TBS-T) and incubated with blocking buffer containing 0.1M NaHCO3 (pH 8.6) and 5 mg/mL bovine serum albumin (BSA) for 1 hour at room temperature (RT). After further washing with TBS-T, 10 μL of a library solution (containing 2×10^12 phages) diluted in 100 μl of blocking buffer were first added to wells coated with control IgM (negative selection) and then unbound phages were transferred to wells coated with LRO4 (positive selection) and incubated at RT. The incubation time for negative or positive selection was reduced from 60 min for the 1st round to 30 min for the 2nd as well as 3rd biopanning round. Thereafter, plates were washed 5 times with TBS-T to remove unbound phages. To further elute nonspecifically bound phages, wells were incubated with 100 μL of 100 μg/ml of native LDL for 1 hour at RT. After washing up to 5 times with TBS-T, bound phages were eluted with 100 μL of elution buffer containing 0.2 M glycine-HCl (pH 2.2) and 1 mg/mL BSA. Eluates were transferred to microfuge tubes and neutralized with 15 μL of 1 M Tris-HCL (pH 9.1). The eluted phages were then titrated and amplified for the next round of panning. The 2nd and 3rd biopanning round was carried out using amplified eluates from the first and second round as input phages, respectively. To remove nonspecifically bound phages and to increase the affinity in the subsequent biopanning rounds, wells were washed 15 and 30 times with 0.1% TBS-T in the 2nd and 0.5% TBS-T in the 3rd rounds of biopanning, respectively. In the last biopanning round, LRO4-bound phages were competitively eluted with increasing concentrations (3-150 μg/mL) of MDA-LDL diluted in blocking buffer followed by elution using elution buffer.
# as §1
# LRO4 [3] = assay: Competition immunoassays for LRO4 binding; set-up: species or system murine; settings: 0.5 μg/mL LRO4; 100 ng/mL captured P2; increasing concentrations of soluble competitor
# Experimental: The specific binding of LRO4 to mimotopes was determined by competition immunoassays. Fifty μl of 0.5 μg/mL MAA-BSA or 100 ng/mL of biotinylated peptides were plated as described above. LRO4 antibody was incubated in TBS-1% BSA with or without increasing concentrations of competitors (BSA, MAA-BSA, P1, P2 and control peptide) for 30 minutes at RT. Binding of LRO4 was determined by chemiluminescent ELISA. The specificity of human plasma Ab binding to P1 was determined in a similar manner. In preliminary experiments, aliquots of pooled plasma samples (n=26) from a published cohort of healthy subjects were diluted in 1% BSA-TBS to yield a limiting plasma dilution. Diluted plasma (1:1,000) and increasing concentrations of competitors were incubated overnight at 4° C. Samples were then centrifuged at 15,800 g for 45 minutes at 4° C. to pellet immune complexes, and supernatants were analyzed for binding to plated P1 (10 μg/mL) by chemiluminescent ELISA.
# LRO4 [4] = assay: Chemiluminescent ELISA, binding of LRO4 to plated or captured peptides; set-up: species or system murine; settings: peptides directly plated at increasing concentrations; LRO4 5 μg/mL
# Experimental: Binding of mAb as well as plasma Abs to respective antigens was measured by chemiluminescent ELISA. Antigens were coated at 5 μg/mL in PBS/EDTA (pH 7.4). Synthetic peptides were directly coated at 10 μg/mL (P1) or 5 μg/mL (P2) in 0.1M NaHCO3 buffer (pH 8.6), unless indicated differently. Biotinylated peptides were immobilized at indicated concentrations in 0.1M NaHCO3 buffer (pH 8.6) on wells pre-coated with 10 μg/mL neutravidin (Pierce, Rockford, Ill., USA). Ab binding was measured using alkaline phosphatase (AP) labeled secondary Abs (described below) followed by chemiluminescent detection. For the detection of human autoAbs, a 1:400 plasma dilution was used. For human assays, internal controls consisting of high and low standard plasma samples were included on each microtiter plate to detect potential variations between microtiter plates. The intra-assay coefficients of variation for all assays were 10 to 14%.
# The following secondary Abs were used: Alkaline Phosphatase (AP)-labeled goat anti-mouse IgM (μ-chain specific), IgG (γ-chain specific), IgG1 (Sigma-Aldrich) and IgG2c (Southern Biotech). For the detection of human autoAbs AP-labeled goat anti human IgG (γ-chain specific) and IgM (μ-chain specific) (Sigma-Aldrich) were used. Biotin-conjugated Abs were detected with AP-conjugated neutravidin (1:10,000; Pierce).
# [5] = Table 2A, Ph.D.-12 library clones
# [6] = Table 2B, Ph.D.7C7 library clones
Substance,Inhibition of binding to LR04 (B/Bo) (LRO4 [1]; [5]),Binding of phages to LR04 (LRO4 [2]; [5]),Binding of phages to control IgM (isotype control IgM; [5]),competition for LRO4 binding to captured biotinylated P2 (LRO4 [3]),binding of LRO4 to plated peptides (LRO4 [4]),Inhibition of binding to LR04 (B/Bo) (LRO4 [1]; [6]),Binding of phages to LR04 (LRO4 [2]; [6]),Binding of phages to control IgM (isotype control IgM; [6])
"ESWTNSWAHYFG [A36, B41, M35]",0.14,1.16 OD,0.03 OD,–,–,–,–,–
ESWNTNSWAMYFG [M2],0.20,1.17 OD,0.03 OD,–,–,–,–,–
"ACSPNLNMNC (ACSPNLNMNCGGGS-NH2; cysteine pairing not given here) [scrambled peptide of P2, reference compound]",–,–,–,had no effect,not recognized by LRO4,–,–,–
NSWTNASLSTFH [A40],0.10,0.89 OD,0.04 OD,–,–,–,–,–
GWGNKTPSQDVH [A39],0.19,1.19 OD,0.05 OD,–,–,–,–,–
ADPFSPTNRIPL [M7],0.10,1.37 OD,0.03 OD,–,–,–,–,–
KNSXQPL [Ca4],–,–,–,–,–,0.13,0.9 OD,0.1 OD
NNWKMPL [Cb4],–,–,–,–,–,0.02,0.6 OD,0.1 OD
QNSHMPL [Ca3],–,–,–,–,–,0.04,0.5 OD,0.1 OD
NNYNMPL [Cb589],–,–,–,–,–,0.03,0.8 OD,0.1 OD
QSYTNDDVLRIS [M19],0.25,1.67 OD,0.03 OD,–,–,–,–,–
"HSLSNIQMATLA [M10, G8]",0.10,1.16 OD,0.03 OD,–,–,–,–,–
"NNWNMPL [Ca1, Ca7]",–,–,–,–,–,0.04,0.8 OD,0.1 OD
HRMTNAMHHFMG [A38],0.10,0.64 OD,0.21 OD,–,–,–,–,–
HSLTNTQMTQLS [M31],0.40,1.35 OD,0.03 OD,–,–,–,–,–
QNMNNWTLASIM [A31],0.25,0.85 OD,0.08 OD,–,–,–,–,–
